Here are results for 21 compounds from ChEMBL document CHEMBL3045363, “Synthesis of 3-methylflavones and their antioxidant and antibacterial activities” (Med Chem Res, 2012).

Holding throughout (type): functional
For one test, the system named is Klebsiella pneumoniae. Put plainly: Antimicrobial activity against Klebsiella pneumoniae at 1 ug/ul after 24 hr by agar diffusion method.
Another test relates to Pseudomonas aeruginosa. The test can be described thus: Antimicrobial activity against Pseudomonas aeruginosa at 1 ug/ul after 24 hr by agar diffusion method.
A further test relates to Escherichia coli. The test can be described thus: Antimicrobial activity against Escherichia coli at 1 ug/ul after 24 hr by agar diffusion method. In general terms: Agar diffusion results depend on both activity and mobility in agar.
A further test deals with Bacillus cereus. Put plainly: Antimicrobial activity against Bacillus cereus at 1 ug/ul after 24 hr by agar diffusion method.
A further test deals with Bacillus subtilis. The test can be described thus: Antimicrobial activity against Bacillus subtilis at 1 ug/ul after 24 hr by agar diffusion method.
For the next test, the system named is Staphylococcus aureus. Put plainly: Antimicrobial activity against Staphylococcus aureus at 1 ug/ul after 24 hr by agar diffusion method.
The nature of test [1]: Antioxidant activity assessed as DPPH scavenging activity after 20 min by spectrophotometry.

Values after ≈ are worked out from the molar mass of the structure shown.

As for `Cc1c(-c2ccc(Br)cc2)oc2ccccc2c1=O`, the “growth inhibition (GI)” value with Klebsiella pneumoniae is 72%; in the test on Pseudomonas aeruginosa, 51%; with Escherichia coli it was 27%; with Bacillus cereus it was 62%; in the test with Bacillus subtilis, 82%; in the test on Staphylococcus aureus, 58%. In addition, the 50% inhibitory concentration (IC50) (usually the concentration that inhibits the measured activity by half) in test [1] was 111.11 µg/mL (≈ 353 µM).
As for `Cc1c(-c2ccccc2Br)oc2ccccc2c1=O`, the “growth inhibition (GI)” value turned out to be 78% in the test on Klebsiella pneumoniae; 42% with Pseudomonas aeruginosa; 34% in the test with Escherichia coli; 80% in the test with Bacillus cereus; 39% with Bacillus subtilis; 81% in the test on Staphylococcus aureus. Moreover, the IC50 in test [1] worked out at 70.42 µg/mL (≈ 223 µM).
Regarding `Cc1c(-c2ccc(F)cc2)oc2ccccc2c1=O`, the “growth inhibition (GI)” value in the test on Klebsiella pneumoniae was 70%; in the test with Pseudomonas aeruginosa, 48%; in the test with Escherichia coli, 31%; in the test on Bacillus cereus, 75%; in the test with Bacillus subtilis, 81%; in the test on Staphylococcus aureus, 73%. Besides, the IC50 in test [1] was determined as 113.64 µg/mL (≈ 447 µM).
In the case of `COc1ccc2c(=O)c(C)c(-c3ccc(Cl)cc3)oc2c1`, the “growth inhibition (GI)” value is listed as 87% in the test on Klebsiella pneumoniae; 28% with Pseudomonas aeruginosa; 28% with Escherichia coli; 90% with Bacillus cereus; 46% in the test on Bacillus subtilis; 65% in the test with Staphylococcus aureus. Moreover, the half-maximal inhibitory concentration (IC50) in test [1] was 80.64 µg/mL (≈ 268 µM).
In the case of `Cc1c(-c2ccc(O)cc2)oc2ccccc2c1=O`, the “growth inhibition (GI)” value in the test on Klebsiella pneumoniae is on record as 80%; in the test on Pseudomonas aeruginosa, 37%; in the test with Escherichia coli it was 47%; in the test with Bacillus cereus it was 81%; in the test with Bacillus subtilis, 56%; with Staphylococcus aureus, 74%. The IC50 in test [1] turned out to be 104 µg/mL (≈ 412 µM).
With `COc1cccc(-c2oc3ccccc3c(=O)c2C)c1`, the “growth inhibition (GI)” value in the test with Klebsiella pneumoniae was 40%; with Pseudomonas aeruginosa it was 59%; in the test on Escherichia coli, 50%; in the test on Bacillus cereus, 65%; in the test with Bacillus subtilis, 74%; in the test on Staphylococcus aureus, 43%. Also, the IC50 in test [1] was found to be 156.25 µg/mL (≈ 587 µM).
Turning to `Cc1c(-c2ccccc2Cl)oc2ccccc2c1=O`, the “growth inhibition (GI)” value worked out at 59% with Klebsiella pneumoniae; 44% in the test on Pseudomonas aeruginosa; 51% in the test with Escherichia coli; 60% in the test with Bacillus cereus; 25% in the test with Bacillus subtilis; 57% with Staphylococcus aureus. Besides, the IC50 in test [1] was found to be 192.3 µg/mL (≈ 710 µM).
For the compound `COc1ccc2c(=O)c(C)c(-c3ccccc3)oc2c1`, the “growth inhibition (GI)” value turned out to be 41% in the test with Klebsiella pneumoniae; 51% in the test with Pseudomonas aeruginosa; 34% with Escherichia coli; 50% in the test on Bacillus cereus; 63% with Bacillus subtilis; 59% in the test with Staphylococcus aureus. In addition, the IC50 in test [1] was determined as 200 µg/mL (≈ 751 µM).
For the compound `Cc1c(-c2ccc([N+](=O)[O-])cc2)oc2ccccc2c1=O`, the “growth inhibition (GI)” value in the test on Klebsiella pneumoniae is on record as 85%; in the test with Pseudomonas aeruginosa, 57%; in the test with Escherichia coli, 31%; in the test with Bacillus cereus, 89%; in the test with Bacillus subtilis, 60%; in the test on Staphylococcus aureus, 77%. In test [1], the IC50 was 131.57 µg/mL (≈ 468 µM).
For `Cc1c(-c2ccccc2F)oc2ccccc2c1=O`, the “growth inhibition (GI)” value was found to be 52% in the test with Klebsiella pneumoniae; 47% in the test on Pseudomonas aeruginosa; 47% in the test on Escherichia coli; 60% in the test on Bacillus cereus; 26% with Bacillus subtilis; 55% in the test with Staphylococcus aureus. In addition, the IC50 in test [1] was 208.3 µg/mL (≈ 819 µM).
Turning to `Cc1ccccc1-c1oc2ccccc2c(=O)c1C`, the “growth inhibition (GI)” value was 40% in the test on Klebsiella pneumoniae; 52% in the test on Pseudomonas aeruginosa; 40% with Escherichia coli; 50% with Bacillus cereus; 49% in the test on Bacillus subtilis; 53% with Staphylococcus aureus. In test [1], the IC50 was 156.25 µg/mL (≈ 624 µM).
In the case of `Cc1c(-c2ccccc2O)oc2ccccc2c1=O`, the “growth inhibition (GI)” value in the test on Klebsiella pneumoniae amounted to 70%; with Pseudomonas aeruginosa, 43%; in the test with Escherichia coli, 38%; in the test on Bacillus cereus it was 50%; in the test on Bacillus subtilis, 83%; in the test with Staphylococcus aureus it was 70%. Besides, the IC50 in test [1] stood at 79.37 µg/mL (≈ 315 µM).
Regarding `Cc1c(-c2ccccc2)oc2ccccc2c1=O` [3-METHYL-2-PHENYL-4H-CHROMEN-4-ONE], the “growth inhibition (GI)” value in the test on Klebsiella pneumoniae is reported as 75%; in the test on Pseudomonas aeruginosa it was 48%; in the test with Escherichia coli, 41%; with Bacillus cereus, 80%; in the test with Bacillus subtilis, 44%; with Staphylococcus aureus, 47%. Moreover, in test [1], the IC50 was 106.38 µg/mL (≈ 450 µM).
As to `Cc1c(-c2ccc(N(C)C)cc2)oc2cc(O)ccc2c1=O`, the “growth inhibition (GI)” value with Klebsiella pneumoniae came out at 50%; in the test with Pseudomonas aeruginosa, 51%; in the test on Escherichia coli, 29%; in the test on Bacillus cereus, 57%; in the test with Bacillus subtilis, 50%; with Staphylococcus aureus, 55%. The IC50 in test [1] was 58.82 µg/mL (≈ 199 µM).
For `O=C1O[C@H]([C@@H](O)CO)C(O)=C1O` [ASCORBIC ACID], in test [1], the IC50 is 17.6 µg/mL (≈ 99.9 µM).
With `Cc1c(-c2ccc(N(C)C)cc2)oc2ccccc2c1=O`, the “growth inhibition (GI)” value in the test on Klebsiella pneumoniae was 50%; with Pseudomonas aeruginosa, 46%; with Escherichia coli, 51%; in the test on Bacillus cereus, 50%; with Bacillus subtilis, 55%; with Staphylococcus aureus, 58%. In addition, in test [1], the half-inhibitory concentration (IC50) is 104.16 µg/mL (≈ 373 µM).
Consider `Cc1cccc(-c2oc3ccccc3c(=O)c2C)c1`, for which the “growth inhibition (GI)” value in the test with Klebsiella pneumoniae was determined as 70%; with Pseudomonas aeruginosa, 56%; in the test with Escherichia coli it was 50%; in the test on Bacillus cereus, 80%; in the test on Bacillus subtilis, 69%; with Staphylococcus aureus, 76%. Further, the IC50 in test [1] was 250 µg/mL (≈ 999 µM).
Take `Cc1ccc(-c2oc3ccccc3c(=O)c2C)cc1`: the “growth inhibition (GI)” value in the test on Klebsiella pneumoniae came to 60%; in the test on Pseudomonas aeruginosa, 43%; in the test with Escherichia coli, 42%; in the test with Bacillus cereus it was 62%; in the test on Bacillus subtilis it was 38%; in the test with Staphylococcus aureus it was 60%. For the same compound, in test [1], the IC50 is 102.04 µg/mL (≈ 408 µM).
For `COc1ccccc1-c1oc2ccccc2c(=O)c1C`, the “growth inhibition (GI)” value in the test on Klebsiella pneumoniae came out at 62%; in the test with Pseudomonas aeruginosa, 45%; with Escherichia coli it was 52%; in the test on Bacillus cereus it was 51%; in the test with Bacillus subtilis it was 59%; in the test with Staphylococcus aureus it was 61%. Moreover, in test [1], the IC50 turned out to be 142.86 µg/mL (≈ 536 µM).
`COc1ccc(-c2oc3ccccc3c(=O)c2C)cc1`: the “growth inhibition (GI)” value is 60% in the test on Klebsiella pneumoniae; 46% with Pseudomonas aeruginosa; 41% with Escherichia coli; 68% in the test with Bacillus cereus; 46% in the test on Bacillus subtilis; 66% with Staphylococcus aureus. In addition, the IC50 in test [1] is 100 µg/mL (≈ 376 µM).
On to `Cc1c(-c2ccc(Cl)cc2)oc2ccccc2c1=O`, for which the “growth inhibition (GI)” value with Klebsiella pneumoniae worked out at 81%; with Pseudomonas aeruginosa, 47%; in the test with Escherichia coli it was 33%; in the test with Bacillus cereus it was 85%; in the test with Bacillus subtilis it was 68%; with Staphylococcus aureus, 74%. Further, the IC50 in test [1] amounted to 98.04 µg/mL (≈ 362 µM).
